{"source": "patent US20090264342A1", "about": "“COMPOSITIONS AND METHODS FOR ANTIBIOTIC POTENTIATION AND DRUG DISCOVERY” (priority 2006, published 2009)", "key": {"wild-type E. coli": {"system": "wild-type E. coli", "type": "cell-based", "conditions": "norfloxacin, ampicillin or kanamycin treatment plus 2,2′-dipyridyl (500 μM)", "protocol": "FIG. 36 is a set of 3 graphs showing the effect of iron chelation, hydroxyl radical quenching of iron-sulfur synthesis on the […] efficiency of bactericidal antibiotics. a,c,e, Log change in colony forming units per mL (CFU/mL, mean+/−standard deviation). Effect of addition of 500 μM 2,2′-dipyridyl or 150 mM thiourea to wildtype E. coli, and on an iron-sulfur cluster synthesis mutant, ΔiscS, on bactericidal drug efficacy and hydroxyl radical formation following exposure to a, 250 ng/mL norfloxacin (Nor), c, 5 μg/mL ampicillin (Amp), or e, 5 μg/mL kanamycin (Kan).\n(§1) Growth Conditions. In the experiments, the growth and survival of untreated exponential phase E. coli, or S. aureus, were compared to cultured treated with antibiotics at the above concentrations. E. coli cultures were treated with norfloxacin, kanamycin, ampicillin, rifamycin SV, chloramphenical, tetracycline, erythromycin, or spectinomycin, where appropriate, S. aureus cultures were treated with norfloxacin, vancomycin or chloramphenical, where appropriate.\nApplication of iron chelators is an established means of blocking Fenton reaction-mediated hydroxyl radical formation by sequestering unbound iron. […]"}, "E. coli MG1655": {"system": "E. coli MG1655", "experiment": "Hydroxyl radical formation (HPF dye, flow cytometry) in E. coli", "type": "cell-based", "conditions": "for hydroxyl radical formation: E. coli, 250 ng/mL norfloxacin, 5 μg/mL ampicillin, 5 μg/mL kanamycin, bacteriostatic drugs, 3 hours after addition", "protocol": "as §1\nHydroxyl radical and DNA damage sensor experiments using the flow cytometer. To monitor the occurrence of DNA damage, the engineered DNA damage sensor was used, which responds to auto-cleavage of LexA by activating expression of gfpmut3b. All the drug treatments and the no-drug controls were collected with both the kanamycin- and ampicillin-resistant version of the plasmid, with the exception of the ampicillin treatment (kanamycin plasmid only) and the kanamycin treatment (ampicillin plasmid only). All data were collected using a Becton Dickinson FACSCalibur flow cytometer (Becton Dickinson, San Jose, Calif.) with a 488-nm argon laser and a 515- to 545-nm emission filter (FL1) at low flow rate. The following PMT voltage settings were used: E00 (FSC), 360 (SSC) and 700 (FL1). To detect hydroxyl radical formation, the fluorescent reporter dye, 3′-(p-hydroxyphenyl) fluorescein (HPF, Invitrogen, Carlsbad, Calif.) was used at a concentration of 5 μM (1:1000) dilution), which is oxidized by hydroxyl radicals with high specificity. The following PMT voltage settings were used: E00 (FSC), 360 (SSC) and 825 (FL 1). Calibrite beads (Becton Dickinson) were used for instrument calibration.\nFlow data were processed and analyzed with MATLAB (MathWorks, Natick, Mass.) to construct figures. At least 50,000 cells were collected for each sample. In all experiments, cells were grown as described above. Samples were taken immediately before addition of drug (time zero), then every hour for 3 hours. At each timepoint, approximately […] were collected, washed once and resuspended in filtered 1×PBS, pH 7.2 (Fisher Scientific), and fluorescence was measured on the flow cytometer.\nIn the present study, the Applicants chose to investigate whether hydroxyl radical formation also contributes to antibiotic-induced cell death in bacteria. Using the dye hydroxyphenyl fluorescein, HPF, which is oxidized by hydroxyl radicals with high specificity, hydroxyl radical formation was first observed over a range of hydrogen peroxide concentrations known to induce hydroxyl radicals through the reduction of hydrogen peroxide by ferrous iron. In this manner, it was possible to establish the scale of hydroxyl radical formation detectable using this dye via flow cytometry."}, "Streptomyces pneumoniae": {"system": "Streptomyces pneumoniae", "conditions": "more active than ciprofloxacin against this pathogen; cited from earlier work"}, "[1]": {"system": "SOS response (LexA auto-cleavage) in E. coli", "experiment": "SOS induction, LexA-controlled GFP DNA damage sensor", "type": "cell-based", "conditions": "5 μg/mL Amp, 5 μg/mL Kan, 25 ng/mL Nor; 3 hours after addition", "protocol": "FIG. 37 is a set of two graphs showing SOS induction in E. coli by bactericidal antibiotics. Activation of the SOS response was monitored using an engineered sensor construct that employs the LexA repressor for control of Green Fluorescent Protein (GFP) expression. Shown are representative GFP histogram measurements taken 3 hours after addition of a, bactericidal antibiotics (5 μg/mL Amp, 5 μg/mL Kan, 25 ng/mL Nor). b, Log change in CFU/mL of ΔrecA E. coli following exposure to 5 μg/mL Kanamycin (open diamonds), 25 ng/mL Norfloxacin (open triangles), and 5 μg/mL Ampicillin (open circles). For comparison, CFU/mL are also shown for widltype E. coli exposed to 5 μg/mL Kanamycin (diamonds), 25 ng/mL Norfloxacin (triangles), and 5 μg/mL Ampicillin (circles), as well as a lower concentration of norfloxacin in these experiments to highlight the significant increase in killing in a recA knockout.\nDNA damage sensor construction. The DNA sensor construct with ampicillin resistance was described previously (D. J. Dwyer et al., “Superoxide and hydroxyl radicals contribute to gyrase inhibitor-mediated cell death in E. coli”, 2007 accepted by Mol. Syst. Biol., which is incorporated herein by reference in its entirety).\nHydroxyl radical and DNA damage sensor experiments using the flow cytometer. […]\nHydroxyl radical are extremely toxic, and will readily damage membrane lipids, proteins and DNA. […]"}, "[2]": {"system": "S. aureus strain S3 (ISP 794)", "experiment": "Survival assay, potentiation of ciprofloxacin, S. aureus strain S3", "type": "cell-based", "conditions": "1 μg/mL ciprofloxacin + 25 μg/mL hinokiflavone, 16 hour time point", "from_the_text": "Cell-based Survival Assay."}, "E. Coli RecA protein": {"molecular_target": "T1, E. Coli RecA protein (Escherichia coli, UniProt P0A7G6)", "T1 construct": "purchased New England Biolabs", "T1 sequence (P0A7G6 2-353)": "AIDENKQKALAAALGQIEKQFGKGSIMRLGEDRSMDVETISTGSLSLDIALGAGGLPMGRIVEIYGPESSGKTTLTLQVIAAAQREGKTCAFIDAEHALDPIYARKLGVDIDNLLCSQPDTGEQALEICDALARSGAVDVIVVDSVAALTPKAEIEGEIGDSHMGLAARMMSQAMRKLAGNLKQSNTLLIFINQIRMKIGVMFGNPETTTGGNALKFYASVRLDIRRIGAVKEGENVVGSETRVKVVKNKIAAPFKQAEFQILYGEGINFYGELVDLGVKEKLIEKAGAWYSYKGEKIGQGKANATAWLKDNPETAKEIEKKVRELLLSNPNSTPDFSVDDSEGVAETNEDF", "experiment": "RecA ATPase activity, in vitro luciferase assay", "type": "biochemical", "conditions": "luciferase assay screen", "protocol": "The assay measures the amount of ATPase (adenosine triphosphate (ATP)-adenosine diphosphate (ADP)) activity catalyzed by E. Coli RecA protein. In the assay, recA is incubated in reaction buffer with DNA, ATP and compounds of interest for a measured amount of time. The quantity of ATP remaining after the RecA reaction is quantitated using a subsequent luciferase assay. […] Details of the assay are provided below.\nMaterials. Kingase glo plus, adenosine triphosphate (ATP), Adenosine 5′-O-(3-thiotriphosphate), and 384 well plates, white were obtained from Fisher; and M13 mp18 Single-stranded DNA, RecA Protein and T4 Polynucleotide Kinase Reaction Buffer=PNK were obtained from New England Biolabs. PNK contained 70 mM Tris-CL pH 7.5, 10 mM MgCl2 and 5 mM DTT.\nAssay Procedure. Final reaction mixture contains: 0.5 μL of M13 single stranded DNA (250 μg/mL); 1.0 μL of 10×PHK buffer; 0.25 μL of RecA (2 mg/mL); 0.25 μL of 1 mM ATP; 0.25 μL of test compound in DMSO; and […] of H2O.\nTest compounds are incubated at room temperature in the presence of RecA protein and DNA prior to addition of ATP. This can be achieved by the preparation of two mixes, as indicated below. Desirably, both a no-DNA and a DNA/DMSO-only (i.e., no test compound) control were included.\nThe following steps are then performed: (1) Add 7.75 μL of mix 1 to the well of a 384 well plate; (2) Add 0.5 μL of the compound of interest; (3) Incubate at room temperature for 5 minutes; (4) Add 2.5 μL of the ATP mix. Incubate at room temperature for 30 minutes; (5) Add 12.5 μL of Promega Kinase glo plus; (6) Incubate at room temperature for 10 minutes or more; and (7) Measure luminescence of the reaction.\nTested compounds were obtained from Boston University (1205 compounds from CMLD diversity library, available from Dr. Scott Schauss), IndoFine (66 compounds based on flavone structure), ChemdiV (48 compounds known to be ATPase inhibitors and 720 compounds structurally related to CB101 (described, for example, in U.S. Ser. No. 60/662,038), and Asinex. Five (5) tested compounds were bisfiavones and 28 were predicted, based on structural modeling (see, for example, Example 31) to dock with Rec A. Many of the compounds are lipophilic, natural-product-like compounds. Others are flavones, bisflavones, flavonoids, coumarins, and/or heterocyclic compounds.\nPercent inhibition is calculated according to the following equation: […]"}, "S. aureus cells": {"system": "S. aureus cells", "experiment": "Mutation/resistance assay, resistance to ciprofloxacin", "type": "cell-based", "conditions": "4×MIC ciprofloxacin with (+) or without (−) 25 μg/mL hinokiflavone", "protocol": "This assay measures the rate at which mutant cells arise in the presence of an antibiotic agent. Cells are grown in the presence of antibiotic agent at a concentration above (generally well above, e.g., 4× or 8×) its MIC, and further in the presence or absence of a test agent (that may inhibit or enhance mutation).\nEvery 24 hours, an aliquot is removed from the culture and is diluted so that the antibiotic agent is no longer present at a concentration above its MIC (e.g., so that the antibiotic agent is present at 0.5×MIC or less). These aliquoted samples are then assayed to determine whether they can grow in the presence of the antibiotic agent. Specifically, when growth is observed in the presence of antibiotic agent at a concentration that is 4×MIC, then resistance is said to have developed. Test compounds can therefore be assayed to assess whether or not they can reduce the incidence of resistance (e.g., by inhibiting mutation).\nThese aliquoted samples were then assayed to determine whether they can grow in the presence of ciprofloxacin. […]"}, "wildtype E. coli": {"system": "wildtype E. coli", "experiment": "NAD+/NADH extraction and NAD cycling assay", "type": "cell-based", "conditions": "bacteriostatic drug", "from_the_text": "NAD+/NADH extraction and NAD cycling assay. Protocols for dinucleotide extraction and the cycling assay were based on protocols by Leonardo et al. (M. R. Leonardo et al., J. Bacteriol., 1996, 178: 6013-6018).\nUsing a modified version (M. R. Leonardo et al., J. Bacteriol., 1996, 178: 6013-6018;) of the NAD^+ cycling assay developed by Bernofsky and Swan (C. Bernofsky et al., Anal. Biochem., 1973, 53: 452-458), the present Applicants monitored NAD^+ and NADH concentrations in wildtype E. coli following treatment with the bactericidal drugs norfloxacin, ampicillin and kanamycin, as well as the bacteriostatic drug spectinomycin. For all three bactericidal drugs, a >5 fold increase in the NAD^+/NADH ratio was observed 0.5 hours after drug addition. This ratio returned to untreated levels by 1 hour. The increase in the NAD^+/NADH ratio was predominantly due to a large relative drop in NADH accompanied by a modest surge in NAD^+. This spike was not observed in an untreated culture, where the ratio of NAD^+/NADH remained tightly bounded. More importantly, treatment with the bacteriostatic drug spectinomycin had no effect on the NAD^+/NADH ratio relative to the untreated culture. A surge in NADH consumption upon exposure to bactericidal antibiotics should induce a burst in superoxide generation via the respiratory chain. […]"}}}
{"smiles": "c1ccc(-c2ccccn2)nc1", "note": "[2,2′-dipyridyl]", "values": [{"measurement": "survival of bactericidal drug-treated E. coli following addition of iron chelator", "setting": "wild-type E. coli", "result": "significant increase in survival"}, {"measurement": "hydroxyl radical formation in norfloxacin-treated cultures", "setting": "E. coli MG1655; addition of 2,2′-dipyridyl (500 μM)", "result": "significantly reduced hydroxyl radical formation"}]}
{"smiles": "CO/N=C1\\CN(c2nc3c(cc2F)c(=O)c(C(=O)O)cn3C2CC2)CC1CN", "note": "(stereo not drawn) [Gemifloxacin]", "values": [{"measurement": "activity relative to ciprofloxacin", "setting": "Streptomyces pneumoniae", "result": 30, "unit": "fold"}]}
{"smiles": "CC1(C)S[C@@H]2[C@H](NC(=O)[C@H](N)c3ccccc3)C(=O)N2[C@H]1C(=O)O", "note": "[ampicillin]", "values": [{"measurement": "SOS activity (LexA-driven GFP expression)", "setting": "[1]", "result": "induced the SOS response"}, {"measurement": "hydroxyl radical formation", "setting": "E. coli MG1655", "result": "induce hydroxyl radical formation"}]}
{"smiles": "O=c1cc(-c2ccc(Oc3c(O)cc4oc(-c5ccc(O)cc5)cc(=O)c4c3O)cc2)oc2cc(O)cc(O)c12", "note": "[hinokiflavone]", "values": [{"measurement": "fewer CFUs in the presence of hinokiflavone as compared with its absence", "setting": "[2]", "result": "approximately 100 fold"}, {"measurement": "IC50", "setting": "E. Coli RecA protein", "result": "< 1860", "unit": "nM"}, {"measurement": "Number of Wells in which Growth Observed in Presence of Ciprofloxacin at 4x MIC", "setting": "S. aureus cells; culture grown 0 days", "result": 0}, {"measurement": "Number of Wells in which Growth Observed in Presence of Ciprofloxacin at 4x MIC", "setting": "S. aureus cells; culture grown 1 day", "result": 0}, {"measurement": "Number of Wells in which Growth Observed in Presence of Ciprofloxacin at 4x MIC", "setting": "S. aureus cells; culture grown 5 days", "result": 0}, {"measurement": "Number of Wells in which Growth Observed in Presence of Ciprofloxacin at 4x MIC", "setting": "S. aureus cells; culture grown 6 days", "result": 0}, {"measurement": "Number of Wells in which Growth Observed in Presence of Ciprofloxacin at 4x MIC", "setting": "S. aureus cells; culture grown 7 days", "result": 3}, {"measurement": "Number of Wells in which Growth Observed in Presence of Ciprofloxacin at 4x MIC", "setting": "S. aureus cells; culture grown 10 days", "result": 4}]}
{"smiles": "CN[C@@H]1[C@H](O)[C@H](NC)[C@H]2O[C@@]3(O)C(=O)C[C@@H](C)O[C@H]3O[C@@H]2[C@H]1O", "note": "[spectinomycin]", "values": [{"measurement": "effect on the NAD+/NADH ratio relative to the untreated culture", "setting": "wildtype E. coli", "result": "no effect"}, {"measurement": "hydroxyl radical formation", "setting": "E. coli MG1655", "result": "did not stimulate hydroxyl radical production"}]}
